Test results from patent EP3072956A1, “Selective culture medium for polymyxin-resistant, gram-negative bacteria” (priority 2015, dated 2016).

Legend:
Test in all cases: MIC determination by broth microdilution (MHB-CA, CLSI)
Format in all cases: cell-based
H. alvei = conditions: strain ER
Experimental: (§1) Determination of MIC values were performed by broth microdilution in Cation-Adjusted Mueller-Hinton broth (MHB-CA) according to the CLSI guidelines (Clinical and Laboratory Standards Institute). Polymyxin B and colistin (Sigma-Aldrich, Saint-Louis) were tested with or without Tween 80 over a range dilution from 0.12 to 128 µg/ml. The surfactant Tween 80, at a final concentration of 0.002%, prevents the binding of polymyxins to multi-array plastic panel. Actually, the use of Tween for determination of MIC of polymyxins is still debatable. MHB-CA broth and 5.10^5 CFU/ml of each tested strain were distributed in each well. Following the EUCAST breakpoints, strains were characterized as susceptible or resistant to polymyxins.

B. cepacia = conditions: strain Bcep
Experimental: as §1

A. baumannii = tested on: A. baumannii
Experimental: as §1

E. coli = tested on: E. coli
Experimental: as §1

P. aeruginosa = tested on: P. aeruginosa
Experimental: as §1

K. pneumoniae = tested on: K. pneumoniae
Experimental: as §1

K. oxytoca = conditions: strain C24
Experimental: as §1

P. vulgaris = conditions: strain Pvul
Experimental: as §1

S. maltophilia = tested on: S. maltophilia
Experimental: as §1

S. marcescens = conditions: strain Smar
Experimental: as §1

M. morganii = conditions: strain Mmor
Experimental: as §1

E. aerogenes = conditions: strain 36F8
Experimental: as §1

C. freundii = tested on: C. freundii
Experimental: as §1

## colistin
H. alvei; With Tween80
  MIC: 16 µg/mL
H. alvei; Without Tween80
  MIC: 16 µg/mL
B. cepacia; With Tween80
  MIC: >128 µg/mL
B. cepacia; Without Tween80
  MIC: >128 µg/mL
A. baumannii; strain 38B9, With Tween80
  MIC: 0.25 µg/mL
A. baumannii; strain 38B9, Without Tween80
  MIC: 0.5 µg/mL
A. baumannii; strain Aba6, With Tween80
  MIC: 128 µg/mL
A. baumannii; strain Aba6, Without Tween80
  MIC: 128 µg/mL
A. baumannii; strain C105, With Tween80
  MIC: 0.12 µg/mL
A. baumannii; strain C105, Without Tween80
  MIC: 0.5 µg/mL
E. coli; strain 36A6, With Tween80
  MIC: 0.12 µg/mL
E. coli; strain 36A6, Without Tween80
  MIC: 0.12 µg/mL
E. coli; strain 36D7, With Tween80
  MIC: 0.12 µg/mL
E. coli; strain 36D7, Without Tween80
  MIC: 0.25 µg/mL
E. coli; strain 38D6, With Tween80
  MIC: 0.12 µg/mL
E. coli; strain 38D6, Without Tween80
  MIC: 0.25 µg/mL
E. coli; strain 27563, With Tween80
  MIC: 8 µg/mL
E. coli; strain 27563, Without Tween80
  MIC: 16 µg/mL
E. coli; strain 27837, With Tween80
  MIC: 8 µg/mL
E. coli; strain 27837, Without Tween80
  MIC: 16 µg/mL
E. coli; strain 27850, With Tween80
  MIC: 8 µg/mL
E. coli; strain 27850, Without Tween80
  MIC: 16 µg/mL
E. coli; strain 27852, With Tween80
  MIC: 8 µg/mL
E. coli; strain 27852, Without Tween80
  MIC: 8 µg/mL
E. coli; strain 28509, With Tween80
  MIC: 4 µg/mL
E. coli; strain 28509, Without Tween80
  MIC: 4 µg/mL
E. coli; strain 30742, With Tween80
  MIC: 4 µg/mL
E. coli; strain 30742, Without Tween80
  MIC: 8 µg/mL
E. coli; strain ATCC 25922, With Tween80
  MIC: 0.12 µg/mL
E. coli; strain ATCC 25922, Without Tween80
  MIC: 0.25 µg/mL
E. coli; strain C140, With Tween80
  MIC: 0.12 µg/mL
E. coli; strain C140, Without Tween80
  MIC: 0.12 µg/mL
E. coli; strain Eco OmpC-OmpF-, With Tween80
  MIC: 0.12 µg/mL
E. coli; strain Eco OmpC-OmpF-, Without Tween80
  MIC: 0.12 µg/mL
P. aeruginosa; strain 38J8, With Tween80
  MIC: 0.5 µg/mL
P. aeruginosa; strain 38J8, Without Tween80
  MIC: 2 µg/mL
P. aeruginosa; strain ATCC 27853, With Tween80
  MIC: 0.12 µg/mL
P. aeruginosa; strain ATCC 27853, Without Tween80
  MIC: 0.5 µg/mL
P. aeruginosa; strain C111, With Tween80
  MIC: 0.12 µg/mL
P. aeruginosa; strain C111, Without Tween80
  MIC: 1 µg/mL
P. aeruginosa; strain C131, With Tween80
  MIC: 0.25 µg/mL
P. aeruginosa; strain C131, Without Tween80
  MIC: 1 µg/mL
P. aeruginosa; strain C133, With Tween80
  MIC: 0.5 µg/mL
P. aeruginosa; strain C133, Without Tween80
  MIC: 2 µg/mL
K. pneumoniae; strain 12E2, With Tween80
  MIC: 64 µg/mL
K. pneumoniae; strain 12E2, Without Tween80
  MIC: 64 µg/mL
K. pneumoniae; strain 13G2, With Tween80
  MIC: 32 µg/mL
K. pneumoniae; strain 13G2, Without Tween80
  MIC: 64 µg/mL
K. pneumoniae; strain 18J1, With Tween80
  MIC: 32 µg/mL
K. pneumoniae; strain 18J1, Without Tween80
  MIC: 32 µg/mL
K. pneumoniae; strain 36A4, With Tween80
  MIC: 0.12 µg/mL
K. pneumoniae; strain 36A4, Without Tween80
  MIC: 0.12 µg/mL
K. pneumoniae; strain 36A5, With Tween80
  MIC: 0.12 µg/mL
K. pneumoniae; strain 36A5, Without Tween80
  MIC: 0.12 µg/mL
K. pneumoniae; strain 36A7, With Tween80
  MIC: 0.12 µg/mL
K. pneumoniae; strain 36A7, Without Tween80
  MIC: 0.25 µg/mL
K. pneumoniae; strain 38B7, With Tween80
  MIC: 0.12 µg/mL
K. pneumoniae; strain 38B7, Without Tween80
  MIC: 0.5 µg/mL
K. pneumoniae; strain 75b, With Tween80
  MIC: 128 µg/mL
K. pneumoniae; strain 75b, Without Tween80
  MIC: 128 µg/mL
K. pneumoniae; strain 1118, With Tween80
  MIC: 64 µg/mL
K. pneumoniae; strain 1118, Without Tween80
  MIC: 64 µg/mL
K. pneumoniae; strain 1515, With Tween80
  MIC: 32 µg/mL
K. pneumoniae; strain 1515, Without Tween80
  MIC: 64 µg/mL
K. pneumoniae; strain AF1b, With Tween80
  MIC: 16 µg/mL
K. pneumoniae; strain AF1b, Without Tween80
  MIC: 16 µg/mL
K. pneumoniae; strain BICb, With Tween80
  MIC: >128 µg/mL
K. pneumoniae; strain BICb, Without Tween80
  MIC: >128 µg/mL
K. pneumoniae; strain C1, With Tween80
  MIC: 128 µg/mL
K. pneumoniae; strain C1, Without Tween80
  MIC: 128 µg/mL
K. pneumoniae; strain C3, With Tween80
  MIC: 32 µg/mL
K. pneumoniae; strain C3, Without Tween80
  MIC: 32 µg/mL
K. pneumoniae; strain C7, With Tween80
  MIC: >128 µg/mL
K. pneumoniae; strain C7, Without Tween80
  MIC: >128 µg/mL
K. pneumoniae; strain C11, With Tween80
  MIC: 128 µg/mL
K. pneumoniae; strain C11, Without Tween80
  MIC: 64 µg/mL
K. pneumoniae; strain C12, With Tween80
  MIC: 64 µg/mL
K. pneumoniae; strain C12, Without Tween80
  MIC: 64 µg/mL
K. pneumoniae; strain C16, With Tween80
  MIC: 64 µg/mL
K. pneumoniae; strain C16, Without Tween80
  MIC: 64 µg/mL
K. pneumoniae; strain C21, With Tween80
  MIC: 128 µg/mL
K. pneumoniae; strain C21, Without Tween80
  MIC: 128 µg/mL
K. pneumoniae; strain C22, With Tween80
  MIC: 64 µg/mL
K. pneumoniae; strain C22, Without Tween80
  MIC: 32 µg/mL
K. pneumoniae; strain C25, With Tween80
  MIC: 32 µg/mL
K. pneumoniae; strain C25, Without Tween80
  MIC: 64 µg/mL
K. pneumoniae; strain C26, With Tween80
  MIC: 128 µg/mL
K. pneumoniae; strain C26, Without Tween80
  MIC: 128 µg/mL
K. pneumoniae; strain C27, With Tween80
  MIC: >128 µg/mL
K. pneumoniae; strain C27, Without Tween80
  MIC: >128 µg/mL
K. pneumoniae; strain C112, With Tween80
  MIC: 0.12 µg/mL
K. pneumoniae; strain C112, Without Tween80
  MIC: 0.5 µg/mL
K. pneumoniae; strain C115, With Tween80
  MIC: 0.12 µg/mL
K. pneumoniae; strain C115, Without Tween80
  MIC: 0.12 µg/mL
K. pneumoniae; strain C130, With Tween80
  MIC: 0.12 µg/mL
K. pneumoniae; strain C130, Without Tween80
  MIC: 0.5 µg/mL
K. pneumoniae; strain C132, With Tween80
  MIC: 0.12 µg/mL
K. pneumoniae; strain C132, Without Tween80
  MIC: 0.12 µg/mL
K. pneumoniae; strain Kp OmpK3 5-OmpK3 6-, With Tween80
  MIC: 0.12 µg/mL
K. pneumoniae; strain Kp OmpK3 5-OmpK3 6-, Without Tween80
  MIC: 0.12 µg/mL
K. pneumoniae; strain Sa, With Tween80
  MIC: >128 µg/mL
K. pneumoniae; strain Sa, Without Tween80
  MIC: 128 µg/mL
K. pneumoniae; strain T1b, With Tween80
  MIC: 128 µg/mL
K. pneumoniae; strain T1b, Without Tween80
  MIC: 128 µg/mL
K. pneumoniae; strain T4, With Tween80
  MIC: 64 µg/mL
K. pneumoniae; strain T4, Without Tween80
  MIC: 64 µg/mL
K. pneumoniae; strain T5, With Tween80
  MIC: 64 µg/mL
K. pneumoniae; strain T5, Without Tween80
  MIC: 32 µg/mL
K. oxytoca; With Tween80
  MIC: 64 µg/mL
K. oxytoca; Without Tween80
  MIC: 64 µg/mL
P. vulgaris; With Tween80
  MIC: >128 µg/mL
P. vulgaris; Without Tween80
  MIC: >128 µg/mL
S. maltophilia; strain Sm2, With Tween80
  MIC: >128 µg/mL
S. maltophilia; strain Sm2, Without Tween80
  MIC: >128 µg/mL
S. maltophilia; strain SmA51, With Tween80
  MIC: 16 µg/mL
S. maltophilia; strain SmA51, Without Tween80
  MIC: 32 µg/mL
S. marcescens; With Tween80
  MIC: >128 µg/mL
S. marcescens; Without Tween80
  MIC: >128 µg/mL
M. morganii; With Tween80
  MIC: >128 µg/mL
M. morganii; Without Tween80
  MIC: >128 µg/mL
E. aerogenes; With Tween80
  MIC: 0.12 µg/mL
E. aerogenes; Without Tween80
  MIC: 0.12 µg/mL
C. freundii; strain 38B2, With Tween80
  MIC: 0.12 µg/mL
C. freundii; strain 38B2, Without Tween80
  MIC: 0.12 µg/mL
C. freundii; strain C136, With Tween80
  MIC: 0.12 µg/mL
C. freundii; strain C136, Without Tween80
  MIC: 0.25 µg/mL
